# ChEMBL document CHEMBL1134976, “SB-656104-A: a novel 5-HT(7) receptor antagonist with improved in vivo properties” (Bioorg Med Chem Lett, 2002)
# Assays:
# [1] = molecular target: T1, 5-hydroxytryptamine receptor 7 (Homo sapiens, UniProt P34969); assay: Binding affinity for human cloned 5-hydroxytryptamine 7 receptor in HEK 293 using [3H]5-CT as a radioligand; format: cell-based, HEK293
# [2] = molecular target: T2, Alpha-1B adrenergic receptor (Homo sapiens, UniProt P35368); assay: Binding affinity towards Alpha-1B adrenergic receptor
# T2 sequence (P35368 whole entry): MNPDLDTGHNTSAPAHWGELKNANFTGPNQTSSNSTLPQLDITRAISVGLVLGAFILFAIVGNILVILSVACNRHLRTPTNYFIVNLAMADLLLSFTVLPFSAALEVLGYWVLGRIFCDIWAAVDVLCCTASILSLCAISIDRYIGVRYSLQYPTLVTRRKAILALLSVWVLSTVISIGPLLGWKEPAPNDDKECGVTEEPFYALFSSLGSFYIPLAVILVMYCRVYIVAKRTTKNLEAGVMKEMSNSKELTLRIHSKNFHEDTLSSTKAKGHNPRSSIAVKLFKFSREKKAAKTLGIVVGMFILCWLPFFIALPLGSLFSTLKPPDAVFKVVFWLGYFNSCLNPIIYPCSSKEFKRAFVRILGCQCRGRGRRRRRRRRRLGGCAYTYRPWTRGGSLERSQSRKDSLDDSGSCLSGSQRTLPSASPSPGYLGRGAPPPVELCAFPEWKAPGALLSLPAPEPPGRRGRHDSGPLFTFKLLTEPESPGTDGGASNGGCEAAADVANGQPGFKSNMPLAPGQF
# [3] = Steady state brain :blood ratio was determined; format: ADME, organism-based; conditions: rat, brain and blood
# [4] = Compound was tested for the lower blood clearance in rat; format: ADME, organism-based; conditions: read-out: CLb
# Cavia porcellus [5] = assay: Effective dose to antagonise 5-CT induced hypothermia in guinea pig at 1 hour after intraperitoneal administration; conditions: ip
# [6] = Half life was determined; format: ADME, organism-based; conditions: rat, in vivo
# [7] = molecular target: 5-hydroxytryptamine receptor 1B (Homo sapiens, UniProt P28222); assay: Compound was tested for its binding affinity for human cloned 5-hydroxytryptamine 1B receptor in CHO using [3H]5-HT as a radioligand
# Cavia porcellus [8] = species on record: Cavia porcellus; assay: Effective dose to antagonise 5-CT induced hypothermia in guinea pig at 2 hours; format: functional
# [9] = molecular target: 5-hydroxytryptamine receptor 2B (Homo sapiens, UniProt P41595); assay: Compound was tested for its binding affinity for human cloned 5-hydroxytryptamine 2B receptor in HEK 293 using [3H]ketanserin as a radioligand; format: cell-based, HEK293
# [10] = molecular target: 5-hydroxytryptamine receptor 1E (Homo sapiens, UniProt P28566); assay: Compound was tested for its binding affinity for human cloned 5-hydroxytryptamine 1E receptor in CHO using [3H]5-HT as a radioligand
# [11] = molecular target: T3, 5-hydroxytryptamine receptor 2C (Homo sapiens, UniProt P28335); assay: Compound was tested for its binding affinity for human cloned 5-hydroxytryptamine 2C receptor in HEK 293 using [3H]mesulergine as a radioligand; format: cell-based, HEK293
# T3 sequence (P28335 whole entry): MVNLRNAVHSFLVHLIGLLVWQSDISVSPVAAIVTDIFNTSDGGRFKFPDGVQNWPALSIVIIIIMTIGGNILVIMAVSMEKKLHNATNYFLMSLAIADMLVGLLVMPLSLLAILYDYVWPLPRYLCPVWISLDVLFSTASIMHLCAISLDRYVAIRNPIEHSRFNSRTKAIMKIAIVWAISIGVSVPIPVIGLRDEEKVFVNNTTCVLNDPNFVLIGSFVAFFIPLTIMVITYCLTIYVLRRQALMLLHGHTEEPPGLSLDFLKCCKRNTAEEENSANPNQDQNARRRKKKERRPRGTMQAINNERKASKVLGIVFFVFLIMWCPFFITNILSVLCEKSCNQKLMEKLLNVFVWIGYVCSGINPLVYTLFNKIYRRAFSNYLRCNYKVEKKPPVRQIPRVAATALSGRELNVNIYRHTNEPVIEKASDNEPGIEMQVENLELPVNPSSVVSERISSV
# [12] = molecular target: T4, 5-hydroxytryptamine receptor 1A (Homo sapiens, UniProt P08908); assay: Compound was tested for its binding affinity for human cloned 5-hydroxytryptamine 1A receptor in HEK 293 using [3H]5-CT as a radioligand; format: cell-based, HEK293
# T4 sequence (P08908 whole entry): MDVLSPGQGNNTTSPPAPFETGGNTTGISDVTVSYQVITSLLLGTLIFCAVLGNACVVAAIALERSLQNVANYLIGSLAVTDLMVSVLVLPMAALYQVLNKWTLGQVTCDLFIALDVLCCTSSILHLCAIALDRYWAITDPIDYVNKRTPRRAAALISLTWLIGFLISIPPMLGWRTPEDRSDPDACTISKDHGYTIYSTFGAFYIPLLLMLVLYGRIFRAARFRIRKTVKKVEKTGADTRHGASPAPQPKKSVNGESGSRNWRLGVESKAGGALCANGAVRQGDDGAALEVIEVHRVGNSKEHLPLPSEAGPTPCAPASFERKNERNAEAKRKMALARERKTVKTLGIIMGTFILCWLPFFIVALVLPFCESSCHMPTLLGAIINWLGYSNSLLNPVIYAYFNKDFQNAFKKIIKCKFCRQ
# [13] = molecular target: 5-hydroxytryptamine receptor 5A (Homo sapiens, UniProt P47898); assay: Compound was tested for its binding affinity in 5-hydroxytryptamine 5A receptor (using human cloned receptors in HEK 293 and [3H]5-CTas a radioligand ); format: cell-based, HEK293
# [14] = molecular target: 5-hydroxytryptamine receptor 4 (Homo sapiens, UniProt Q13639); assay: Compound was tested for its binding affinity for 5-hydroxytryptamine 4 receptor
# [15] = molecular target: 5-hydroxytryptamine receptor 1D (Homo sapiens, UniProt P28221); assay: Compound was tested for its binding affinity for human cloned 5-hydroxytryptamine 1D receptor in CHO using [3H]5-HT as a radioligand
# [16] = Oral bioavailability in rat; format: ADME, organism-based; conditions: in vivo
# [17] = molecular target: 5-hydroxytryptamine receptor 6 (Homo sapiens, UniProt P50406); assay: Compound was tested for its binding affinity in 5-hydroxytryptamine 6 receptor (using human cloned receptors in HeLa and [3H]LSD as a radioligand )
# [18] = molecular target: T1, 5-hydroxytryptamine receptor 7; assay: Compound was tested for its binding affinity in 5-hydroxytryptamine 7 receptor (using human cloned receptors in HEK 293 and [3H]5-CT as a radioligand ); format: cell-based, HEK293
# [19] = molecular target: 5-hydroxytryptamine receptor 2A (Homo sapiens, UniProt P28223); assay: Compound was tested for its binding affinity for human cloned 5-hydroxytryptamine 2A receptor in HEK 293 using [3H]ketanserin as a radioligand; format: cell-based, HEK293
# [20] = molecular target: T5, 5-hydroxytryptamine receptor 1F (Homo sapiens, UniProt P30939); assay: Compound was tested for its binding affinity for human cloned 5-hydroxytryptamine 1F receptor in CHO using [3H]5-HT as a radioligand
# T5 sequence (P30939 whole entry): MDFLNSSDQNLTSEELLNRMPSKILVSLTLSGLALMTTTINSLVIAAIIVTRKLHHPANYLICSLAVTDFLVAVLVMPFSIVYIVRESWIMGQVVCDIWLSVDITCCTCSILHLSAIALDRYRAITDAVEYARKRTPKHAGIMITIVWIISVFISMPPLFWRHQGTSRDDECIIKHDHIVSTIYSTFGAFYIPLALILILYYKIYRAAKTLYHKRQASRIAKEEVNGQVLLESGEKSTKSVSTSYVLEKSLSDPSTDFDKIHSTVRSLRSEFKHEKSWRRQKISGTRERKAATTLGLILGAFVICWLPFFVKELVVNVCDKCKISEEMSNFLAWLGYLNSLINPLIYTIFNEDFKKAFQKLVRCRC
# T1 sequence (P34969 whole entry): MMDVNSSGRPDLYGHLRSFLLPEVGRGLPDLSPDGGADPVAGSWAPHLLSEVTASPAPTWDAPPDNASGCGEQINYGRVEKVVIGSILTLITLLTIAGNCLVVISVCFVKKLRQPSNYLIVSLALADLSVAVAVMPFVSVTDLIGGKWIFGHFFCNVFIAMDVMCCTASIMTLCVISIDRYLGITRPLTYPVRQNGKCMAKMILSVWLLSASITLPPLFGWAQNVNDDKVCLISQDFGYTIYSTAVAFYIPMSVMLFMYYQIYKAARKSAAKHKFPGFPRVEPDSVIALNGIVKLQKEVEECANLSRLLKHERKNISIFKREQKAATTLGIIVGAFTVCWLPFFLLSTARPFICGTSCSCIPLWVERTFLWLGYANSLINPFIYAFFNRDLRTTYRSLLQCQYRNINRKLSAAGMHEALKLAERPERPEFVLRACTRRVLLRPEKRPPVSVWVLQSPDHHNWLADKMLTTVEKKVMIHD
# 5-hydroxytryptamine receptor 2B, sequence (P41595 whole entry): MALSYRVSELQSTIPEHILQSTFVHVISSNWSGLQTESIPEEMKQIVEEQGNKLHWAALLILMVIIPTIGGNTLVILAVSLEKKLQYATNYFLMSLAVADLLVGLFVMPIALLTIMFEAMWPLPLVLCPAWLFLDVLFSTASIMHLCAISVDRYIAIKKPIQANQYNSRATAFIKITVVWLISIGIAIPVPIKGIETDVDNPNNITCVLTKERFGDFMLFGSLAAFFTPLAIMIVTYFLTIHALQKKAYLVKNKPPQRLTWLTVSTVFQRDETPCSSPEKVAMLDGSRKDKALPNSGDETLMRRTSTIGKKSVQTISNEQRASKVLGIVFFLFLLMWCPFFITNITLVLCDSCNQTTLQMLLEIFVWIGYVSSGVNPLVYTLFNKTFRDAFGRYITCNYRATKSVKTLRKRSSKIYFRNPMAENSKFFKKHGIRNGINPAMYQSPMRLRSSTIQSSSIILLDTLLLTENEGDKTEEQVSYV
# 5-hydroxytryptamine receptor 1B, sequence (P28222 whole entry): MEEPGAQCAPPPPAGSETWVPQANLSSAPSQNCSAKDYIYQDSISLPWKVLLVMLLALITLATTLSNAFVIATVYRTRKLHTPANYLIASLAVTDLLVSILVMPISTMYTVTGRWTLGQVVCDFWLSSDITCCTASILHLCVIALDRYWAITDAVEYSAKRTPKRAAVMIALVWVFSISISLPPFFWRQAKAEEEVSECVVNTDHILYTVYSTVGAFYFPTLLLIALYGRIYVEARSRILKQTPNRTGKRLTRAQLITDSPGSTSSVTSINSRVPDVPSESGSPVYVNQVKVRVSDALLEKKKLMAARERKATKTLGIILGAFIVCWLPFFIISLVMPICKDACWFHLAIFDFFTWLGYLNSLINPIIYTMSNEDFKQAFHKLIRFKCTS
# 5-hydroxytryptamine receptor 4, sequence (Q13639 whole entry): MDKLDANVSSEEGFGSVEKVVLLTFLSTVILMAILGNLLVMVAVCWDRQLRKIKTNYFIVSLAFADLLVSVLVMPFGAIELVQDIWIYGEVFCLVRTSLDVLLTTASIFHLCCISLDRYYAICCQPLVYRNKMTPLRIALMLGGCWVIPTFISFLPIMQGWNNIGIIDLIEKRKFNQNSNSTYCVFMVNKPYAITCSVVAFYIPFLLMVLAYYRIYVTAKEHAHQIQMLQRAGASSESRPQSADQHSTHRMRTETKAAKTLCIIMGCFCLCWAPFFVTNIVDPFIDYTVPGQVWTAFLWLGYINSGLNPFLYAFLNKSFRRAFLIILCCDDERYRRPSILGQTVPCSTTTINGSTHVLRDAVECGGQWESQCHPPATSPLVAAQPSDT
# 5-hydroxytryptamine receptor 5A, sequence (P47898 whole entry): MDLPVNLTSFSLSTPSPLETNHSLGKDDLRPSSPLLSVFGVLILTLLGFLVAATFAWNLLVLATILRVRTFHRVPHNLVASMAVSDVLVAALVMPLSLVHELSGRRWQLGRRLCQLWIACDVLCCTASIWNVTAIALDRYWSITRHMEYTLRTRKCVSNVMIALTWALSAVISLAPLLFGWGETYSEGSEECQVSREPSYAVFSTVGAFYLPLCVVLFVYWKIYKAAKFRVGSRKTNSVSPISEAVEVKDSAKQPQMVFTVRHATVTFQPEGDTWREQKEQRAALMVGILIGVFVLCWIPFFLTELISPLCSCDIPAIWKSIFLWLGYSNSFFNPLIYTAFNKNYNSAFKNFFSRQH
# 5-hydroxytryptamine receptor 6, sequence (P50406 whole entry): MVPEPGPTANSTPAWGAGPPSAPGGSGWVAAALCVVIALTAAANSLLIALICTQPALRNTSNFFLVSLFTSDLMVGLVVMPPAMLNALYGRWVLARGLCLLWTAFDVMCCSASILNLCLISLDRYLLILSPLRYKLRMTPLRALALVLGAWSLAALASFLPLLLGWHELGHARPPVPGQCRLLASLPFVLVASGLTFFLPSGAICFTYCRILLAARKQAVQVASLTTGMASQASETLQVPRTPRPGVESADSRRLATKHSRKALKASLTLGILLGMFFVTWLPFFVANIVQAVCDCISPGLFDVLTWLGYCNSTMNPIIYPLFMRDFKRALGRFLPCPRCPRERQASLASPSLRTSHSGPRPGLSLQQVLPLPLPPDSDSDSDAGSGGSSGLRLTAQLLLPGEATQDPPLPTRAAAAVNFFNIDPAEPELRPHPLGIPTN
# 5-hydroxytryptamine receptor 1E, sequence (P28566 whole entry): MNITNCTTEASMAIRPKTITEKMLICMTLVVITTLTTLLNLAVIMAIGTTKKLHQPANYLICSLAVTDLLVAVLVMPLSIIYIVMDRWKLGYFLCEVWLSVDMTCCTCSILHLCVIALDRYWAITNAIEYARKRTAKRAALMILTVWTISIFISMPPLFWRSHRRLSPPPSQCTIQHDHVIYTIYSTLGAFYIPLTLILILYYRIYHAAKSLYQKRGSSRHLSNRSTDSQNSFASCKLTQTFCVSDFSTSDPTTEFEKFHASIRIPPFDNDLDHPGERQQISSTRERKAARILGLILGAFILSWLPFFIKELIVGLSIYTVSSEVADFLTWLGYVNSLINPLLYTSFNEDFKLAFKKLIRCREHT
# 5-hydroxytryptamine receptor 1D, sequence (P28221 whole entry): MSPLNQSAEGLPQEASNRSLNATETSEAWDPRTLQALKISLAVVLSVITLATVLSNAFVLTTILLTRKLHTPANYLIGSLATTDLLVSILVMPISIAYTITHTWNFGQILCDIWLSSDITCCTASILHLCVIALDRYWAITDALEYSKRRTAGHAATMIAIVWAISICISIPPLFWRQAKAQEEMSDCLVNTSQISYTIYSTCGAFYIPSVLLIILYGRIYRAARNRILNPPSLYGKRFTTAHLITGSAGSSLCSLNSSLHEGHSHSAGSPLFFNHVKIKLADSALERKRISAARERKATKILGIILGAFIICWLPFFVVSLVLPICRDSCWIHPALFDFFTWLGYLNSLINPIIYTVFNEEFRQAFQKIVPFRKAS
# 5-hydroxytryptamine receptor 2A, sequence (P28223 whole entry): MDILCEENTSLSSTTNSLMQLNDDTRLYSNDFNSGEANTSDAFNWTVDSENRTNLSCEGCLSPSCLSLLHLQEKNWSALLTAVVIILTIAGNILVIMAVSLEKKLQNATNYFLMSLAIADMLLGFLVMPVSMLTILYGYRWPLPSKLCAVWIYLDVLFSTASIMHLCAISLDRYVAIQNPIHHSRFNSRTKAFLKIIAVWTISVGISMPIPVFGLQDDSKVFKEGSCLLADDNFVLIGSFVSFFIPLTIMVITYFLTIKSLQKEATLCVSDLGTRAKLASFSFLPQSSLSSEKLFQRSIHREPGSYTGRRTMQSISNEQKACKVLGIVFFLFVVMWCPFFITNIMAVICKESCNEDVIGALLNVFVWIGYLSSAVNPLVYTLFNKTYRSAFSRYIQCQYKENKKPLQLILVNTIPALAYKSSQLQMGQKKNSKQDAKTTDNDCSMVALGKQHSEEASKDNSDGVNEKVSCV
Structure (SMILES),Ki [1] [µM],Ki [2] [µM],other results
CC1CCN(CC[C@H]2CCCN2S(=O)(=O)c2ccc3c[nH]nc3c2)CC1,0.00646,,
CC1CCN(CC[C@H]2CCCN2S(=O)(=O)c2ccc3oc(O)nc3c2)CC1,0.166,,
CC1CCN(CC[C@H]2CCCN2S(=O)(=O)c2ccc3[nH]c(O)nc3c2)CC1,0.0575,,
CC1CCN(CC[C@H]2CCCN2S(=O)(=O)c2ccc3[nH]nnc3c2)CC1,0.0257,,
CC1CCN(CC[C@H]2CCCN2S(=O)(=O)c2ccc3[nH]cnc3c2)CC1,0.00646,,
CC1CCN(CC[C@H]2CCCN2S(=O)(=O)c2ccc3c(c2)NCC3)CC1,0.0229,,
O=C(c1ccc(F)cc1)C1CCN(CC[C@H]2CCCN2S(=O)(=O)c2ccc3cc[nH]c3c2)CC1,0.000832,0.0191,
O=S(=O)(c1ccc2cc[nH]c2c1)N1CCC[C@@H]1CCN1CCC(n2c(O)nc3ccccc32)CC1,0.000708,0.0437,
O=C(c1ccc(Cl)cc1)C1CCN(CC[C@H]2CCCN2S(=O)(=O)c2ccc3cc[nH]c3c2)CC1,0.000794,0.0933,
CC1CCN(CC[C@H]2CCCN2S(=O)(=O)c2cccc(O)c2)CC1.Cl,,,Kp [3]: 0.8; clearance [4]: 140 mL/min/kg; ED50 (Cavia porcellus [5]): 3 mg/kg; half-life [6]: < 0.5 h
O=c1oc2ccccc2n1C1CCN(CC[C@H]2CCCN2S(=O)(=O)c2ccc3cc[nH]c3c2)CC1,0.00182,0.309,
CC1CCN(CC[C@H]2CCCN2S(=O)(=O)c2ccc3cc[nH]c3c2)CC1,0.0024,> 10,
O=S(=O)(c1ccc2cc[nH]c2c1)N1CCC[C@@H]1CCN1CCC(c2cc3ccccc3[nH]2)CC1,0.00631,0.0891,
O=S(=O)(c1ccc2cc[nH]c2c1)N1CCC[C@@H]1CCN1CCC(Oc2ccc(F)cc2)CC1,0.000501,0.0302,
O=S(=O)(c1ccc2cc[nH]c2c1)N1CCC[C@@H]1CCN1CCC(c2c[nH]c3ccccc23)CC1,0.000676,0.00129,
O=S(=O)(c1ccc2cc[nH]c2c1)N1CCC[C@@H]1CCN1CCC(Oc2ccc(Cl)cc2)CC1,,,Ki [7]: 0.631 µM; Kp [3]: 0.9; ED50 (Cavia porcellus [8]): 2 mg/kg; Ki [9]: 0.0912 µM; clearance [4]: 57 mL/min/kg; Ki [10]: > 5.01 µM; Ki [11]: 0.269 µM; Ki [12]: 0.562 µM; Ki [13]: 0.182 µM; Ki [14]: 1.91 µM; Ki [15]: 0.0251 µM; bioavailability [16]: 16%; Ki [17]: 0.851 µM; half-life [6]: 2 h; Ki [18]: 0.002 µM; Ki [19]: 0.0631 µM; Ki [20]: > 2 µM
